Tested on: MSU-induced acute rat gouty arthritis model
Assay: MSU-induced rat acute gouty arthritis model
Format: in vivo, SD rats
Conditions: FIG. 1
Experimental: Test Example 3 MSU-Induced Rat Gouty Arthritis Model Evaluation Test
In this test, male SD rats were used to establish an acute gouty arthritis model by injecting 64 mg/mL sodium urate (MSU) crystal suspension into the right hind ankle joint cavity of the rats. The animals were randomly divided into normal control group, model control group, different dose groups of test compound, 7 rats in each group. The compound group was orally administered with the compound 1 h before and after modeling, and the normal control group and model control group were given an equal amount of vehicle. The foot circumference and foot diameter were measured before and 24 h after modeling.

CC#Cc1ccc2c(-c3ccc(Cl)cc3O)nnc(NC[C@H](O)CO)c2c1 [Compound 062, (S)-3-((4-(4-chloro-2-hydroxyphenyl)-7-(prop-1-yn-1-yl)phthalazin-1-yl)amino) propan-1,2-diol]
effect on ankle joint swelling compared with control compound: significantly better than that of the control compound
ankle joint swelling (oral, 1 h before and after modeling, 24 h after modeling): dose-dependent improvement in ankle joint swelling

Source: US20260216182A1, “PYRIDAZINE NLRP3 INHIBITOR COMPOUND, PHARMACEUTICAL COMPOSITION, AND PREPARATION METHOD THEREFOR AND USE THEREOF” (CHANGCHUN GENESCIENCE PHARMACEUTICAL CO., LTD., priority 2022, published 2026)
